Activity calls are given as the source filed them. The rule behind the calls is not given here.
Legend:
[1] = system: L1210; assay: Antitumor activity against mouse L1210 cells allografted in mouse assessed as increase in survival at 100 mg/kg administered on day 1 followed by 5 injections with 1 day interval relative to control; assay type: functional
[2] = system: L1210; assay: Antitumor activity against mouse L1210 cells allografted in mouse assessed as increase in survival at 200 mg/kg administered on day 1 followed by 5 injections with 1 day interval relative to control; assay type: functional
[3] = system: L1210; assay: Antitumor activity against mouse L1210 cells allografted in mouse assessed as survival at 100 mg/kg administered on day 1 followed by 5 injections with 1 day interval; assay type: functional, organism-based; set-up: dose 100 mg/kg
[4] = system: Mus musculus; assay: Toxicity in mouse L1210 cells allografted mouse assessed as reduction in body weight at 200 mg/kg administered on day 1 followed by 5 injections with 1 day interval; assay type: organism-based; set-up: dose 200 mg/kg; details: in vivo, 24 h
[5] = system: L1210; assay: Antitumor activity against mouse L1210 cells allografted in mouse assessed as survival at 200 mg/kg administered on day 1 followed by 5 injections with 1 day interval; assay type: functional, organism-based; set-up: dose 200 mg/kg
[6] = system: Mus musculus; assay: Toxicity in mouse L1210 cells allografted mouse assessed as reduction in body weight at 100 mg/kg administered on day 1 followed by 5 injections with 1 day interval; assay type: organism-based; set-up: dose 100 mg/kg; details: in vivo, 24 h
[7] = system: Mus musculus; assay: Toxicity in mouse L1210 cells allografted BDF1 mouse assessed as reduction in body weight at 65 mg/kg administered on day 1 followed by 9 injections with 1 day interval; assay type: organism-based; set-up: dose 65 mg/kg; details: in vivo, 24 h
[8] = system: Mus musculus; assay: Toxicity in mouse L1210 cells allografted BDF1 mouse assessed as reduction in body weight at 180 mg/kg administered on day 1 followed by 9 injections with 1 day interval; assay type: organism-based; set-up: dose 180 mg/kg; details: in vivo, 24 h
[9] = system: Mus musculus; assay: Toxicity in mouse L1210 cells allografted BDF1 mouse assessed as reduction in body weight at 109 mg/kg administered on day 1 followed by 9 injections with 1 day interval; assay type: organism-based; set-up: dose 109 mg/kg; details: in vivo, 24 h
[10] = system: L1210; assay: Antitumor activity against mouse L1210 cells allografted in mouse assessed as survival at 109 mg/kg administered on day 1 followed by 9 injections with 1 day interval; assay type: functional, organism-based; set-up: dose 109 mg/kg
[11] = system: L1210; assay: Antitumor activity against mouse L1210 cells allografted in mouse assessed as increase in survival at 109 mg/kg administered on day 1 followed by 9 injections with 1 day interval relative to control; assay type: functional
[12] = system: L1210; assay: Antitumor activity against mouse L1210 cells allografted in mouse assessed as survival at 180 mg/kg administered on day 1 followed by 9 injections with 1 day interval; assay type: functional, organism-based; set-up: dose 180 mg/kg
[13] = system: L1210; assay: Antitumor activity against mouse L1210 cells allografted in mouse assessed as increase in survival at 180 mg/kg administered on day 1 followed by 9 injections with 1 day interval relative to control; assay type: functional
[14] = system: L1210; assay: Antitumor activity against mouse L1210 cells allografted in mouse assessed as survival at 65 mg/kg administered on day 1 followed by 9 injections with 1 day interval; assay type: functional, organism-based; set-up: dose 65 mg/kg
[15] = system: L1210; assay: Antitumor activity against mouse L1210 cells allografted in mouse assessed as increase in survival at 65 mg/kg administered on day 1 followed by 9 injections with 1 day interval relative to control; assay type: functional
[16] = system: L1210; assay: Antitumor activity against mouse L1210 cells allografted in mouse assessed as survival at 50 mg/kg administered on day 1 followed by 5 injections with 1 day interval; assay type: functional, organism-based; set-up: dose 50 mg/kg
[17] = system: L1210; assay: Antitumor activity against mouse L1210 cells allografted in mouse assessed as increase in survival at 50 mg/kg administered on day 1 followed by 5 injections with 1 day interval relative to control; assay type: functional
[18] = system: Mus musculus; assay: Toxicity in mouse L1210 cells allografted mouse assessed as reduction in body weight at 50 mg/kg administered on day 1 followed by 5 injections with 1 day interval; assay type: organism-based; set-up: dose 50 mg/kg; details: in vivo, 24 h

For `CN(C)/N=N/c1ncn(C2CCCO2)c1C(N)=O` (stereo not given), the T/C [1] was 125%, the T/C [2] was 115% and the Activity [3] was “Active”. For the same molecule, the Activity [4] was 4.3 g, the Activity [5] was “Active” and the Activity [6] was 1.9 g.

`CN(C)/N=N/c1[nH]ncc1C(N)=O` showed an Activity [7] of 3.2 g, an Activity [8] of 4.9 g and an Activity [9] of 3.7 g.

With `CN(C)/N=N/c1n[nH]cc1C(N)=O` the Activity [10] was “Active”, the T/C [11] was 176% and the Activity [12] was “Active”. For the same molecule, the T/C [13] was 134%, the Activity [14] was “Active” and the T/C [15] was 142%.

For `CC(=O)OC[C@H]1O[C@@H](n2cnc(C(N)=O)c2/N=N/N(C)C)[C@H](OC(C)=O)[C@@H]1OC(C)=O`, the T/C [1] was 104%, the T/C [2] was 95% and the Activity [3] was “Active”. For the same molecule, the Activity [4] was 0.9 g, the Activity [5] was “Active” and the Activity [6] was 0.3 g.

For `CN(C)/N=N/c1nn(C2CCCO2)cc1C(N)=O` (stereo not given), the Activity [16] was “Active”, the T/C [1] was 141% and the T/C [2] was 134%. The Activity [3] was “Active”, the Activity [4] was 3.7 g and the Activity [5] was “Active”. It also gave a T/C [17] of 129%, an Activity [18] of 1.8 g and an Activity [6] of 2.3 g.

Reference: ChEMBL document CHEMBL3272269, “Synthesis and antileukemic activities of furanyl, pyranyl, and ribosyl derivatives of 4-(3,3-dimethyl-1-triazeno)imidazole-5-carboxamide and 3-(3,3-dimethyl-1-triazeno)pyrazole-4-carboxamide” (J Med Chem, 1979)
